The record followed here is patent publication US8956642B2, “Bupivacaine formulation in a polyorthoester carrier” (Medtronic, Inc., priority 2008, dated 2015).

The test system of assay [1] is normal bladder activity (frequency of reflex bladder contractions). In words: Epidural infusion of bupivacaine in rats, intravesical saline infusion (normal bladder activity, cystometrogram). In kind it is in vivo, rat. The following applies: epidural infusion 25 μg/day, saline infusion into bladder. How it is done:
FIG. 5 is a graphic representation of epidural infusion of bupivacaine in rats treated with an intravesical infusion of saline. Baseline bladder activity was measured before epidural drug treatment as described in Example 4. The columns and error bars represent the mean and SEM values of 10 rats per group. Asterisks indicate statistically significant dose effects compared to baseline as determined by post-hoc Dunnett Multiple Comparison Test.
(§1) An animal model that has been used frequently to study pelvic pain conditions is a rat model of bladder pain. In this model, a female rat was lightly anesthetized with isoflurane and a transurethral catheter was placed into the bladder. The catheter was connected to a pressure transducer so that the pressure within the bladder could be continuously monitored and recorded over time. Fluid was continuously infused into the bladder using a syringe pump at a rate of 0.1 mL/min to cause the bladder to contract repeatedly each time it became full. This is referred to as a volume-evoked micturition reflex or contraction. A repeated series of bladder contractions (pressure spikes) over time was collected using this method. To mimic normal bladder activity, 0.9% saline was infused into the bladder; to mimic painful bladder activity, a dilute solution of acetic acid (0.5%) was infused into the bladder. […]

Assay [2] concerns acetic acid induced bladder hypermotility (frequency of bladder contraction reflexes). Briefly: Epidural infusion of bupivacaine in rat model of bladder pain, intravesical acetic acid infusion. In kind it is in vivo. As to conditions: epidural infusion 25 μg/day. How it is done:
FIG. 6 is a graphic representation of epidural infusion of bupivacaine in rats treated with an intravesical infusion of acetic acid as described in Example 4. Baseline bladder activity was measured before epidural drug treatment. The columns and error bars represent the mean and SEM values of 10 rats per group. Asterisks indicate statistically significant dose effects compared to baseline as determined by post-hoc Dunnett Multiple Comparison Test.
as §1, with “contraction.” for “contraction. A repeated series of bladder contractions (pressure spikes) over time was collected using this method. To mimic normal bladder activity, 0.9% saline was infused into the bladder; to mimic painful bladder activity, a dilute solution of acetic acid (0.5%) was infused into the bladder.”
In order to evaluate the effects of epidurally administered analgesics on normal and painful bladder activity (frequency of reflex bladder contractions), test drugs were continuously administered via an epidural catheter with the tip placed in the mid-lumbar epidural space. […] In the experiments depicted in FIGS. 5 and 6, the baseline bladder activity was measured before implanting the epidural infusion system, the infusion system was implanted on day 0 and cystometrograms were recorded on three consecutive days during which bupivacaine (25 μg/day) was infused into the lumbar epidural space.
Bupivacaine at 25 μg/day reduced acetic acid induced bladder hypermotility by approximately 3 fold on days 2 and 3. The frequency of bladder contraction observed during acetic acid infusion and epidural bupivacaine administration was similar to the baseline bladder activity measured during saline infusion (0.206±0.046 day 3 acetic acid and epidural bupivacaine vs 0.295±0.035 baseline saline).

Consider `CCCCN1CCCCC1C(=O)Nc1c(C)cccc1C` (centres unmarked) [bupivacaine, 1-butyl-N-(2,6-dimethylphenyl)piperidine-2-carboxamide], for which, in assay [1] (day 1, vs baseline), the “effects on normal bladder activity measured during saline infusion” value is “minimal effects”. In addition, the “contraction rate relative to the baseline reflex contraction rate” value in assay [1] (days two and three) is “statistically significant reductions”. The “frequency of bladder contraction reflexes vs baseline” value in assay [2] (0.5% acetic acid infusion into bladder, all three days) is “significantly reduced”. Further, the “frequency of bladder contraction” value in assay [2] (acetic acid infusion, day 3, mean ± SEM) is on record as 0.206±0.046 reflexes per min. Further, the “reduction of acetic acid induced bladder hypermotility” value in assay [2] (days 2 and 3) was “approximately 3 fold”.
